Results: patent publication US12392776B2, “Methods and kits for detecting exosomal protein” (City University of Hong Kong, priority 2020, dated 2025)

Experiments:
Type in all cases: cell-based, human
U251 cells = experiment: NTA exosome release assay
Procedure: To investigate the correlation between the malignant transition of hypoxic GMs and their production and release of exosomes, the secretion assay of exosomes was conducted via using nanoparticle tracking analysis (NTA). U251 cells were tested under normoxic or hypoxic condition.
Briefly, a represents Exo-FBS medium, b represents Sodium-L-lactate (20 mM), c represents BAPTA-AM, d represents BAPTA-AM with the pretreatment of Sodium-L-lactate (20 mM). All chemicals were dissolved in the Exo-FBS medium containing 1% DMSO. All data were shown as the mean±SEM. Significance level: **P<0.01, *P<0.05, hypoxia vs. normoxia, No-treatment vs. BAPTA-AM, MCT1 KD virus vs. Empty backbone virus (control 1), CD147 antisense vs. antisense control (control 2).

GMs = experiment: Intracellular Ca2+ level (Fluo-4 AM Ca2+ assay / Fura Red imaging); conditions: FIG. 23B
Procedure: To further investigate whether the change of intracellular Ca^2+ concentrations could be associated with hypoxia-driven enhanced exosome release, […], AM Ca^2+ imaging and Fluo-4 AM Ca^2+ assay were conducted with normoxic- and hypoxic-U251 cells.
To recapitulate the hypoxia-induced acidic TME, sodium-L-lactates (20 mM) were applied to the culture medium of GMs.

HIF-1α = tested on: HIF-1α

In the case of CC(=O)OCOC(=O)CN(CC(=O)OCOC(C)=O)c1ccccc1OCCOc1ccccc1N(CC(=O)OCOC(C)=O)CC(=O)OCOC(C)=O [BAPTA-AM], the exosome release (U251 cells; GMs with induction of MCT1 OE and CD147 OE, BAPTA-AM 20 μM, 100 μl added to 2.1 ml medium, FIG. 23A) is reported as “marked decline in exosome release”, the exosome release (U251 cells; GMs, lactate-stimulated release, BAPTA-AM with pretreatment of sodium-L-lactate 20 mM, 10 min, FIG. 23C) is reported as “blocked” and the exosome release (U251 cells; hypoxia-enhanced release from U251 cells, intracellular Ca2+ chelated with BAPTA-AM (20 μM)) is reported as “blocked the enhanced release of exosomes”. The “intracellular Ca2+ level” value (GMs; GMs after sodium-L-lactate, BAPTA-AM 20 μM, 100 μl added to 2.1 ml medium) was “distinctive decline in intracellular Ca^2+ level”.

In the case of [Cl-].[Cl-].[Co+2] [CoCl2], the “HIF-1α expression and nuclear localization” value (HIF-1α) is reported as “increased HIF-1α expression and enhanced nuclear localization of HIF-1α”.

With C[C@H](O)C(=O)[O-].[Na+] [sodium-L-lactate] the exosome release (U251 cells; GMs exposed to sodium-L-lactate 20 mM for 10 min, FIG. 23C) was “promote exosome release” and the “intracellular Ca2+ level” value (GMs; GMs, sodium-L-lactate 20 mM, 100 μl added to 2 ml medium) was “enhanced intracellular Ca^2+ level”.
